Reference: PubChem BioAssay (NCI)
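Briefly, cells in 96-well plates were exposed to five compound concentrations for 48 h, and endpoints were estimated by linear interpolation. GI50 is the concentration that inhibits growth by half. At the TGI there is no net growth.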

Key:
Test in all cases: NCI-60 cell line screen, 48 h
HOP-62 NSCLC = test system: HOP-62 NSCLC
SF-295 CNS = test system: SF-295 CNS
A498 renal = test system: A498 renal
SK-OV-3 ovarian = test system: SK-OV-3 ovarian
NCI-H522 lung = test system: NCI-H522 lung
NCI-H23 lung = test system: NCI-H23 lung
SW-620 colon = test system: SW-620 colon
TK-10 renal = test system: TK-10 renal
K-562 leukemia = test system: K-562 leukemia
NCI-H460 lung = test system: NCI-H460 lung
COLO 205 colon = test system: COLO 205 colon
MOLT-4 leukemia = test system: MOLT-4 leukemia
SF-268 CNS = test system: SF-268 CNS
MDA-MB-468 breast = test system: MDA-MB-468 breast
SK-MEL-28 melanoma = test system: SK-MEL-28 melanoma
CCRF-CEM leukemia = test system: CCRF-CEM leukemia
RPMI-8226 leukemia = test system: RPMI-8226 leukemia
786-0 renal = test system: 786-0 renal
SR leukemia = test system: SR leukemia
OVCAR-3 ovarian = test system: OVCAR-3 ovarian
HCC-2998 colon = test system: HCC-2998 colon
NCI-H226 lung = test system: NCI-H226 lung
T-47D breast = test system: T-47D breast
MCF7 breast = test system: MCF7 breast
BT-549 breast = test system: BT-549 breast
HCT-15 colon = test system: HCT-15 colon
OVCAR-8 ovarian = test system: OVCAR-8 ovarian
M14 melanoma = test system: M14 melanoma
U251 CNS = test system: U251 CNS
MDA-MB-231 breast = test system: MDA-MB-231 breast
UACC-257 melanoma = test system: UACC-257 melanoma
KM12 colon = test system: KM12 colon
PC-3 prostate = test system: PC-3 prostate
RXF 393 renal = test system: RXF 393 renal
A549 NSCLC = test system: A549 NSCLC
EKVX NSCLC = test system: EKVX NSCLC
OVCAR-5 ovarian = test system: OVCAR-5 ovarian
OVCAR-4 ovarian = test system: OVCAR-4 ovarian
UACC-62 melanoma = test system: UACC-62 melanoma
MALME-3M melanoma = test system: MALME-3M melanoma
CAKI-1 renal = test system: CAKI-1 renal
SF-539 CNS = test system: SF-539 CNS
HL-60(TB) leukemia = test system: HL-60(TB) leukemia
HT29 colon = test system: HT29 colon
SNB-19 CNS = test system: SNB-19 CNS
MDA-MB-435 = test system: MDA-MB-435
DU-145 prostate = test system: DU-145 prostate
ACHN renal = test system: ACHN renal
SNB-75 CNS = test system: SNB-75 CNS
HOP-92 NSCLC = test system: HOP-92 NSCLC
HCT-116 colon = test system: HCT-116 colon
LOX IMVI melanoma = test system: LOX IMVI melanoma
NCI/ADR-RES ovarian = test system: NCI/ADR-RES ovarian
UO-31 renal = test system: UO-31 renal
SN12C renal = test system: SN12C renal
IGROV1 ovarian = test system: IGROV1 ovarian
SK-MEL-5 melanoma = test system: SK-MEL-5 melanoma

For `CC[C@]12C=CCN3CC[C@@]4(c5ccc(OC)cc5N(C)[C@H]4[C@@](O)(C(=O)OC)[C@@H]1OC(=O)CCCC[P+](c1ccc(C)cc1)(c1ccc(C)cc1)c1ccc(C)cc1)[C@@H]32`, the GI50 (HOP-62 NSCLC) was 731 nM, the TGI (HOP-62 NSCLC) was 2000 nM and the GI50 (SF-295 CNS) was 691 nM. It also gave a TGI (SF-295 CNS) of 1870 nM, a GI50 (A498 renal) of 2090 nM and a TGI (A498 renal) of 5240 nM. For the same compound, the GI50 (SK-OV-3 ovarian) was 535 nM, the TGI (SK-OV-3 ovarian) was 1390 nM and the GI50 (NCI-H522 lung) was 296 nM. The TGI (NCI-H522 lung) was 1060 nM, the GI50 (NCI-H23 lung) was 512 nM and the TGI (NCI-H23 lung) was 1500 nM. It also gave a GI50 (SW-620 colon) of 601 nM, a TGI (SW-620 colon) of 1960 nM and a GI50 (TK-10 renal) of 1040 nM. It also gave a TGI (TK-10 renal) of 2440 nM, a GI50 (K-562 leukemia) of 300 nM and a TGI (K-562 leukemia) of 1870 nM. The GI50 (NCI-H460 lung) was 498 nM, the TGI (NCI-H460 lung) was 1710 nM and the GI50 (COLO 205 colon) was 200 nM. It also gave a TGI (COLO 205 colon) of 384 nM, a GI50 (MOLT-4 leukemia) of 451 nM and a TGI (MOLT-4 leukemia) of 1780 nM. For the same compound, the GI50 (SF-268 CNS) was 692 nM, the TGI (SF-268 CNS) was 2110 nM and the GI50 (MDA-MB-468 breast) was 150 nM. The TGI (MDA-MB-468 breast) was 476 nM, the GI50 (SK-MEL-28 melanoma) was 437 nM and the TGI (SK-MEL-28 melanoma) was 1600 nM. It also gave a GI50 (CCRF-CEM leukemia) of 476 nM, a TGI (CCRF-CEM leukemia) of 2060 nM and a GI50 (RPMI-8226 leukemia) of 202 nM. For the same compound, the TGI (RPMI-8226 leukemia) was 1470 nM, the GI50 (786-0 renal) was 902 nM and the TGI (786-0 renal) was 2370 nM. It also gave a GI50 (SR leukemia) of 365 nM, a TGI (SR leukemia) of 1500 nM and a GI50 (OVCAR-3 ovarian) of 425 nM. It also gave a TGI (OVCAR-3 ovarian) of 1560 nM, a GI50 (HCC-2998 colon) of 416 nM and a TGI (HCC-2998 colon) of 1510 nM. For the same compound, the GI50 (NCI-H226 lung) was 336 nM, the TGI (NCI-H226 lung) was 1450 nM and the GI50 (T-47D breast) was 305 nM. It also gave a TGI (T-47D breast) of 1960 nM, a GI50 (MCF7 breast) of 278 nM and a TGI (MCF7 breast) of 1150 nM. The GI50 (BT-549 breast) was 389 nM, the TGI (BT-549 breast) was 1150 nM and the GI50 (HCT-15 colon) was 2020 nM. For the same compound, the TGI (HCT-15 colon) was 4350 nM, the GI50 (OVCAR-8 ovarian) was 1130 nM and the TGI (OVCAR-8 ovarian) was 2490 nM. It also gave a GI50 (M14 melanoma) of 558 nM, a TGI (M14 melanoma) of 1670 nM and a GI50 (U251 CNS) of 332 nM. It also gave a TGI (U251 CNS) of 1410 nM, a GI50 (MDA-MB-231 breast) of 238 nM and a TGI (MDA-MB-231 breast) of 654 nM. For the same compound, the GI50 (UACC-257 melanoma) was 562 nM, the TGI (UACC-257 melanoma) was 1900 nM and the GI50 (KM12 colon) was 431 nM. For the same compound, the TGI (KM12 colon) was 1480 nM, the GI50 (PC-3 prostate) was 313 nM and the TGI (PC-3 prostate) was 1400 nM. The GI50 (RXF 393 renal) was 329 nM, the TGI (RXF 393 renal) was 1240 nM and the GI50 (A549 NSCLC) was 632 nM. It also gave a TGI (A549 NSCLC) of 2760 nM, a GI50 (EKVX NSCLC) of 680 nM and a TGI (EKVX NSCLC) of 2590 nM. The GI50 (OVCAR-5 ovarian) was 592 nM, the TGI (OVCAR-5 ovarian) was 1530 nM and the GI50 (OVCAR-4 ovarian) was 636 nM. For the same compound, the TGI (OVCAR-4 ovarian) was 3770 nM, the GI50 (UACC-62 melanoma) was 406 nM and the TGI (UACC-62 melanoma) was 1180 nM. It also gave a GI50 (MALME-3M melanoma) of 482 nM, a TGI (MALME-3M melanoma) of 1100 nM and a GI50 (CAKI-1 renal) of 2850 nM. The TGI (CAKI-1 renal) was 7150 nM, the GI50 (SF-539 CNS) was 588 nM and the TGI (SF-539 CNS) was 1620 nM. For the same compound, the GI50 (HL-60(TB) leukemia) was 191 nM, the TGI (HL-60(TB) leukemia) was 560 nM and the GI50 (HT29 colon) was 268 nM. The TGI (HT29 colon) was 783 nM, the GI50 (SNB-19 CNS) was 342 nM and the TGI (SNB-19 CNS) was 1320 nM. It also gave a GI50 (MDA-MB-435) of 472 nM, a TGI (MDA-MB-435) of 1520 nM and a GI50 (DU-145 prostate) of 728 nM. The TGI (DU-145 prostate) was 4310 nM, the GI50 (ACHN renal) was 1800 nM and the TGI (ACHN renal) was 4590 nM. For the same compound, the GI50 (SNB-75 CNS) was 242 nM, the TGI (SNB-75 CNS) was 854 nM and the GI50 (HOP-92 NSCLC) was 295 nM. It also gave a TGI (HOP-92 NSCLC) of 1160 nM, a GI50 (HCT-116 colon) of 342 nM and a TGI (HCT-116 colon) of 1460 nM. The GI50 (LOX IMVI melanoma) was 541 nM, the TGI (LOX IMVI melanoma) was 1640 nM and the GI50 (NCI/ADR-RES ovarian) was 12000 nM. For the same compound, the TGI (NCI/ADR-RES ovarian) was 34400 nM, the GI50 (UO-31 renal) was 2040 nM and the TGI (UO-31 renal) was 7110 nM. It also gave a GI50 (SN12C renal) of 410 nM, a TGI (SN12C renal) of 1380 nM and a GI50 (IGROV1 ovarian) of 351 nM. The TGI (IGROV1 ovarian) was 1150 nM, the GI50 (SK-MEL-5 melanoma) was 590 nM and the TGI (SK-MEL-5 melanoma) was 1240 nM.
